Patent US12077503B2, “Substituted cyclic amides and their use as herbicides” (FMC CORPORATION, priority 2015, dated 2024)
Read-outs that look alike come from different tables or passages of the source.

Experiments:
Experiment in all cases: Test A preemergence
Assay type in all cases: in vivo
[1] = test system: giant foxtail (Setaria faberii); settings: Setaria faberi, pre-emergence, 240 h; for pest or weed control at 125 g/ha: 125 g ai/ha; for pest or weed control at 500 g/ha: 500 g ai/ha
How it was run: (§1)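 Preemergence directed soil spray on seeded pots, or postemergence application to plants 2–10 cm, one- to two-leaf. Solvent mixture non-phytotoxic, with surfactant. Scored ~10 d later, visually, 0–100 vs untreated.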

[2] = test system: ragweed (common ragweed, Ambrosia elatior); settings: Ambrosia artemisiifolia, pre-emergence, 240 h; for pest or weed control at 125 g/ha: 125 g ai/ha; for pest or weed control at 500 g/ha: 500 g ai/ha
How it was run: as §1

Kochia (Kochia scoparia) = settings: Bassia scoparia, pre-emergence, 240 h; for pest or weed control at 125 g/ha: 125 g ai/ha; for pest or weed control at 500 g/ha: 500 g ai/ha
How it was run: as §1

[3] = test system: ryegrass, Italian (Italian ryegrass, Lolium multiflorum); settings: Lolium multiflorum, pre-emergence, 240 h; for pest or weed control at 125 g/ha: 125 g ai/ha; for pest or weed control at 500 g/ha: 500 g ai/ha
How it was run: as §1

[4] = test system: barnyardgrass (Echinochloa crus-galli); settings: Echinochloa crus-galli, pre-emergence, 240 h; for pest or weed control at 125 g/ha: 125 g ai/ha; for pest or weed control at 500 g/ha: 500 g ai/ha
How it was run: as §1

[5] = preemergence, 0 to 100 scale where 0 is no effect and 100 is complete control, read-out: Foxtail, Giant plant response rating
[6] = preemergence, 0 to 100 scale where 0 is no effect and 100 is complete control, read-out: Ragweed plant response rating
[7] = preemergence, 0 to 100 scale where 0 is no effect and 100 is complete control, read-out: Kochia plant response rating
[8] = preemergence, 0 to 100 scale where 0 is no effect and 100 is complete control, read-out: Ryegrass, Italian plant response rating
[9] = preemergence, 0 to 100 scale where 0 is no effect and 100 is complete control, read-out: Barnyardgrass plant response rating
[10] = Preemergence, visual injury vs untreated controls after approximately 10 d, read-out: Foxtail, Giant plant response rating (0 to 100 scale where 0 is no effect and 100 is complete control)
[11] = Preemergence, visual injury vs untreated controls after approximately 10 d, read-out: Ragweed plant response rating (0 to 100 scale where 0 is no effect and 100 is complete control)
[12] = Preemergence, visual injury vs untreated controls after approximately 10 d, read-out: Kochia plant response rating (0 to 100 scale where 0 is no effect and 100 is complete control)
[13] = Preemergence, visual injury vs untreated controls after approximately 10 d, read-out: Ryegrass, Italian plant response rating (0 to 100 scale where 0 is no effect and 100 is complete control)
[14] = Preemergence, visual injury vs untreated controls after approximately 10 d, read-out: Barnyardgrass plant response rating (0 to 100 scale where 0 is no effect and 100 is complete control)
[15] = preemergence, 0 to 100 scale where 0 is no effect and 100 is complete control, approx. 10 d, read-out: Foxtail, Giant plant response rating
[16] = preemergence, visual injury rating about 10 d after treatment, 0 to 100 scale (0 no effect, 100 complete control), read-out: Foxtail, Giant plant response rating
[17] = preemergence, 0 to 100 scale where 0 is no effect and 100 is complete control, approx. 10 d, read-out: Ragweed plant response rating
[18] = preemergence, visual injury rating about 10 d after treatment, 0 to 100 scale (0 no effect, 100 complete control), read-out: Ragweed plant response rating
[19] = preemergence, 0 to 100 scale where 0 is no effect and 100 is complete control, approx. 10 d, read-out: Kochia plant response rating
[20] = preemergence, visual injury rating about 10 d after treatment, 0 to 100 scale (0 no effect, 100 complete control), read-out: Kochia plant response rating
[21] = preemergence, 0 to 100 scale where 0 is no effect and 100 is complete control, approx. 10 d, read-out: Ryegrass, Italian plant response rating
[22] = preemergence, visual injury rating about 10 d after treatment, 0 to 100 scale (0 no effect, 100 complete control), read-out: Ryegrass, Italian plant response rating
[23] = preemergence, 0 to 100 scale where 0 is no effect and 100 is complete control, approx. 10 d, read-out: Barnyardgrass plant response rating
[24] = preemergence, visual injury rating about 10 d after treatment, 0 to 100 scale (0 no effect, 100 complete control), read-out: Barnyardgrass plant response rating

Row | SMILES | pest or weed control at 125 g/ha [1, 5] [%] | pest or weed control at 500 g/ha [1, 10] [%] | pest or weed control at 125 g/ha [2, 6] [%] | pest or weed control at 500 g/ha [2, 11] [%] | pest or weed control at 125 g/ha (Kochia (Kochia scoparia); [7]) [%] | pest or weed control at 500 g/ha (Kochia (Kochia scoparia); [12]) [%] | pest or weed control at 125 g/ha [3, 8] [%] | pest or weed control at 500 g/ha [3, 13] [%] | pest or weed control at 125 g/ha [4, 9] [%] | pest or weed control at 500 g/ha [4, 14] [%] | pest or weed control at 500 g/ha [1, 16] [%] | pest or weed control at 500 g/ha [2, 18] [%] | pest or weed control at 500 g/ha (Kochia (Kochia scoparia); [20]) [%] | pest or weed control at 500 g/ha [3, 22] [%] | pest or weed control at 500 g/ha [4, 24] [%] | also measured
1 | COc1cc([C@H]2CN(C)C(=O)[C@@H]2C(=O)Nc2cccc(F)c2F)cc(OC)c1OC [Compound 1210] |  |  |  |  |  |  |  |  |  |  |  |  |  |  |  | pest or weed control at 125 g/ha ([1]; preemergence, visual injury rating, 0 to 100 scale where 0 is no effect and 100 is complete control, approximately 10 d, read-out: Foxtail, Giant plant response rating): 100%; pest or weed control at 500 g/ha [1, 5]: 100%; pest or weed control at 125 g/ha ([2]; preemergence, visual injury rating, 0 to 100 scale where 0 is no effect and 100 is complete control, approximately 10 d, read-out: Ragweed plant response rating): 0%; pest or weed control at 500 g/ha [2, 6]: 0%; pest or weed control at 125 g/ha (Kochia (Kochia scoparia); preemergence, visual injury rating, 0 to 100 scale where 0 is no effect and 100 is complete control, approximately 10 d, read-out: Kochia plant response rating): 0%; pest or weed control at 500 g/ha (Kochia (Kochia scoparia); [7]): 10%; pest or weed control at 125 g/ha ([3]; preemergence, visual injury rating, 0 to 100 scale where 0 is no effect and 100 is complete control, approximately 10 d, read-out: Ryegrass, Italian plant response rating): 20%; pest or weed control at 500 g/ha [3, 8]: 50%; pest or weed control at 125 g/ha ([4]; preemergence, visual injury rating, 0 to 100 scale where 0 is no effect and 100 is complete control, approximately 10 d, read-out: Barnyardgrass plant response rating): 90%; pest or weed control at 500 g/ha [4, 9]: 100%
2 | CCOc1ccc([C@H]2CNC(=O)[C@@H]2C(=O)Nc2ccccc2F)cc1 [Compound 906] | 0 | 0 | 0 | 0 | 0 | 0 | 0 | 0 | 0 | 0 |  |  |  |  |  | 
3 | Cc1ccc([C@H]2CNC(=O)[C@]2(Br)C(=O)Nc2cccc(F)c2F)cc1F (racemic) [Compound 1073] |  |  |  |  |  |  |  |  |  |  | 100 | 30 | 70 | 20 | 100 | pest or weed control at 125 g/ha [1, 15]: 100%; pest or weed control at 125 g/ha [2, 17]: 10%; pest or weed control at 125 g/ha (Kochia (Kochia scoparia); [19]): 0%; pest or weed control at 125 g/ha [3, 21]: 0%; pest or weed control at 125 g/ha [4, 23]: 100%
4 | Cc1cc([C@H]2CN(C)C(=O)[C@@H]2C(=O)Nc2ccccc2C(F)(F)F)ccc1Cl [Compound 932] | 90 |  |  |  | 40 |  |  |  | 90 |  | 100 | 30 | 70 | 60 | 90 | 
5 | COc1c(F)ccc([C@H]2CNC(=O)[C@@H]2C(=O)Nc2cccc(F)c2F)c1Cl [Compound 882] | 70 | 90 | 30 | 60 | 70 | 90 | 0 | 30 | 90 | 90 |  |  |  |  |  | 
6 | Cc1cc([C@H]2CNC(=O)[C@@H]2C(=O)Nc2ccc(F)cc2F)ccc1C(F)(F)F [Compound 1043] |  |  |  |  |  |  |  |  |  |  | 90 | 50 | 70 | 50 | 90 | pest or weed control at 125 g/ha ([1]; Preemergence, visual injury rating after approximately 10 d, read-out: Foxtail, Giant plant response rating (0 to 100 scale, 0 is no effect, 100 is complete control)): 70%; pest or weed control at 125 g/ha ([2]; Preemergence, visual injury rating after approximately 10 d, read-out: Ragweed plant response rating (0 to 100 scale, 0 is no effect, 100 is complete control)): 0%; pest or weed control at 125 g/ha (Kochia (Kochia scoparia); Preemergence, visual injury rating after approximately 10 d, read-out: Kochia plant response rating (0 to 100 scale, 0 is no effect, 100 is complete control)): 60%; pest or weed control at 125 g/ha ([3]; Preemergence, visual injury rating after approximately 10 d, read-out: Ryegrass, Italian plant response rating (0 to 100 scale, 0 is no effect, 100 is complete control)): 20%; pest or weed control at 125 g/ha ([4]; Preemergence, visual injury rating after approximately 10 d, read-out: Barnyardgrass plant response rating (0 to 100 scale, 0 is no effect, 100 is complete control)): 80%
7 | Cc1cc([C@H]2CN(C)C(=O)[C@@H]2C(=O)Nc2ccc(F)c(F)c2F)ccc1Cl [Compound 931] | 90 |  |  |  | 90 |  |  |  | 90 |  | 90 | 30 | 90 | 70 | 90 | 
8 | Cc1c(F)ccc([C@H]2CN(C)C(=O)[C@@H]2C(=O)Nc2ccccc2S(C)(=O)=O)c1F [Compound 842] | 90 | 100 | 70 | 80 | 80 | 80 | 30 | 60 | 90 | 90 |  |  |  |  |  | 
9 | C/C=C/N1C[C@@H](c2cccc(C(F)(F)F)c2)[C@H](C(=O)Nc2ccccc2F)C1=O (racemic) [Compound 1094] |  |  |  |  |  |  |  |  |  |  | 100 | 0 | 0 | 0 | 80 | pest or weed control at 125 g/ha [1, 15]: 90%; pest or weed control at 125 g/ha [2, 17]: 0%; pest or weed control at 125 g/ha (Kochia (Kochia scoparia); [19]): 0%; pest or weed control at 125 g/ha [3, 21]: 0%; pest or weed control at 125 g/ha [4, 23]: 0%
10 | O=C(Nc1cccc(F)c1F)[C@H]1C(=O)N(C2CC2)CC[C@@H]1c1cccc(C(F)(F)F)c1 [Compound 925] | 80 | 90 | 0 | 0 | 0 | 0 | 30 | 30 | 30 | 90 |  |  |  |  |  | 
